# Values joined by “and” are separate entries in the source; they are usually repeats but may differ in a detail not shown here. Equal values may be shown once.
# How the values were obtained:
# [1] = Chemical stability in the presence of GSH; assay type: physicochemical; details: incubation for 168 h
# Procedure: Based on a stock solution of 0.2 mg GE81112A in 1,548 μL methanol, three different samples were prepared in triplets (test mixture: 100 μL stock solution, 2 μL DMSO, and 1 μL DMSO containing 1.5 GSH equivalents; reference sample A: 200 μL stock solution; reference sample B: 200 μL stock solution and 2 μL DMSO). All samples were measured at three different time points (0 h, 24 h, and 168 h) on a MaXis II system (Bruker).
# CYP3A4 = target: T1, CYP3A4 (Homo sapiens, UniProt P08684); experiment: CYP inhibition IC50 shift assay in human liver microsomes; assay type: in vitro ADME; details: concentrations of up to 50 μM
# T1 construct: the reaction mixture was prepared with a human liver microsome concentration of 0.1 mg/mL; from tissue; host or cells: human liver microsomes
# Procedure: To examine the potential for time-dependent and direct competitive CYP3A4 inhibition, the reaction mixture was prepared with a human liver microsome concentration of 0.1 mg/mL. GE81112A was added to final concentrations of 50, 25, 10, 5, 2, 0.4, and 0.08 μM. Mixtures were brought to 37°C, with the addition of an NADPH-generating system (EDTA, 1 mM; MgCl2, 3 mM; β-NADPH, 1 mM; glucose 6-phosphate, 5 mM final concentration) in water to one set of reaction mixtures and water to a second set of reaction mixtures. The reaction mixtures were preincubated for 45 min. A CYP isoform-selective substrate (3 μM midazolam or 50 μM testosterone) was added to the reaction mixtures, and NADPH was added to the second set of reaction mixtures for an additional 10-min incubation period. The reactions were stopped by the addition of 200 μL internal standard solution in acetonitrile.
# Both incubation plates (for midazolam and testosterone) were centrifuged at 3,000 rpm for 10 min. The samples were analyzed using LC-MS/MS. Parallel analysis of the CYP3A4 substrate midazolam and the CYP3A4 substrate testosterone was performed. The calculations of 50% inhibitory concentration (IC50) values and IC50 shift values were performed by using 4-paratemeter curve fitting.
# Plasma stability = assay type: in vitro ADME; details: for Degradation: after 4 h
# Procedure: For plasma clearance, peptides were dissolved as 1 mM stock solutions in sterile deionized water and incubated at 37°C in 500 μL plasma derived from different species (human, mouse, and rat) at a final concentration of 5 μM. At different time points (0, 1, and 4 h), 100-μL samples were transferred to 500 μL ethanol containing 0.5% (vol/vol) ammonia, and plasma proteins were precipitated for 20 min at 1,735 × g. Each 10-μL supernatant sample was separated on a Triart C18 column (1.9 μm, 20 by 2 mm; YMC, Kyoto, Japan) with an ascending acetonitrile gradient in water (supplemented with 0.1% formic acid), at a flow rate of 500 μL/min. Samples were analyzed in triplicate by LC-MS/MS as above, and the stability of the parent peptides was evaluated based on the comparison of blank samples with incubated samples.
# [2] = system: G-protein-coupled receptors, ion channels, NET and DAT panel; experiment: Pharmacological off-target profiling: in vitro binding assays (CEREP); design: species or system human unless stated (rat); details: 0.01 mM
# From the text: FIG 3 In vitro binding assays. Inhibitory effects of GE81112A were investigated for G-protein-coupled receptors for adenosine (A1 and A2A), […] (α1A, α2A, β1, and β2), cannabinoids (CB1 and CB2), dopamine (D1 and D2S), histamine (H1 and H2), acetylcholine (M1, M2, and M3), opioids (μ-MOP), and serotonin (5-HT1A, 5-HT2A, and 5-HT2B), the ion channels Gly (rat), nAChR (α4β2), nAChR (muscle type), PCP (rat), Cav1.2 (rat), Kv (rat), SKCa (rat), and GABACl (rat), NET (GenBank accession number P23975), and DAT (GenBank accession number Q01959).
# [3] = system: Salmonella enterica serovar Typhimurium; experiment: Ames II test; assay type: cell-based; details: with and without S9
# Procedure: The test was carried out with and without metabolic activation by S9 liver homogenate from rats that had been pretreated with Arcolor, S9 mix. The Salmonella enterica serovar Typhimurium tester strains included the mixed strains TA7001 to TA7006 for detection of base pair substitutions and TA98 for detection of frameshift mutations ([18]). Bacterial cultures (from frozen stocks) were grown overnight and tested for genotype conformation. Test compound diluted in DMSO was tested at 16, 50, 160, 500, 1,600, and 5,000 μg/mL with each strain, both in the presence and in the absence of the exogenous hepatic microsomal fraction (S9) from Aroclor 1254-treated rats (obtained as described above). […] Then, 2.8 mL of a pH indicator solution (Merck KGaA, Darmstadt, Germany) (bromocresol purple) containing trace amounts of histidine and biotin (ready-to-use commercial solution) was added to each well, and all samples were then transferred into a 384-well plate. […] Toxicity was assessed by evaluating the density of growth of the background lawn of bacteria. Mutagenicity was assessed by counting the number of wells with color changes (purple or yellow) or the number of easily visible colonies (revertants).
# [4] = PK in mice after a single i.v. administration; assay type: in vivo, male Swiss mice; details: 10 mg/kg i.v.
# Procedure: In order to determine the PK parameters of GE81112A, a single i.v. dose of 10 mg/kg in solution was administered to male Swiss mice, and plasma, urine, and tissue concentrations were monitored over 24 h (Fig. 2). After i.v. dosing, the different parameters were investigated in more detail. A high distribution of GE81112A in the kidney points toward its excretion via urine. Therefore, urinary tract infections (UTIs) represent the most probable scope of application (Table 2).
# Plasma, urine, and tissue concentrations and PK parameters for GE81112 were assessed after a single i.v. administration of a 10-mg/kg solution to male Swiss mice. Briefly, 5 mL/kg of a 2-mg/mL solution of GE81112A was administered i.v. to fed male Swiss mice (weight of 20 g, obtained from Janvier; n = 24 mice). Samples were collected at 0.08, 0.25, 0.5, 1, 2, 4, 8, and 24 h postadministration for bioanalysis. Bioanalytical samples (plasma, urine, and tissue) were analyzed for the concentration of GE81112 using an exploratory LC-MS/MS method, and PK parameters were estimated using the PK software Phoenix WinNonlin v6.4, using a noncompartmental model and a linear trapezoidal interpolation calculation. The studies were ethically approved by the German governmental authority (protocol number FH/2002; Regierungspräsidium Darmstadt).
# T1 sequence (P08684 whole entry): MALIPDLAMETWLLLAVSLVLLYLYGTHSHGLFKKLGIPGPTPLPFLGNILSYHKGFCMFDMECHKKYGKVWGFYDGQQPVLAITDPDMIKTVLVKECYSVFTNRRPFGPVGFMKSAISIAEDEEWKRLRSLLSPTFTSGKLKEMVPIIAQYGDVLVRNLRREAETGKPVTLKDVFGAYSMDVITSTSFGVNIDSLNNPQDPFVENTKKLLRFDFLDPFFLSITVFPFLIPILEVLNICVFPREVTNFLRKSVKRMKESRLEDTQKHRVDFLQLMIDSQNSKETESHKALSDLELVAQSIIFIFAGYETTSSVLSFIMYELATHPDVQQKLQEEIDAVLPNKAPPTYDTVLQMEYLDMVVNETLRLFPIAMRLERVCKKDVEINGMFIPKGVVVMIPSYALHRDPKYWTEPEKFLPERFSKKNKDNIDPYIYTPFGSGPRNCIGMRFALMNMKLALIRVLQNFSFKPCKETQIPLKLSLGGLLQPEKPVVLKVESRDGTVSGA
structure (smiles),measurement,setting,value
NC(=O)OC[C@@H](O)C[C@H](NC(=O)[C@H]1NCCC[C@H]1O)C(=O)N[C@@H](Cc1c[nH]cn1)C(=O)N[C@H](C(=O)O)[C@H](O)c1cnc(Cl)[nH]1 [GE81112A],Stability in the presence of glutathione (GSH),[1],no degradation or formation of adducts
same,Direct competitive inhibition of CYPA4,CYP3A4,not observed
same,Time-dependent inhibition of CYPA4,CYP3A4,not observed
same,"metabolised at 1 h, 1 μM","Plasma stability; human blood plasma, 37°C, 1 h, read-out: Hydrolysis",3%
same,"metabolised at 4 h, 1 μM","Plasma stability; human blood plasma, 37°C, 4 h, read-out: Hydrolysis",27%
same,Degradation,Plasma stability; mouse blood plasma,No degradation
same,Degradation,Plasma stability; rat blood plasma,No degradation
same,"Off-target inhibitory effects, binding assays",[2],no critical inhibiting effect
same,Mutagenicity,[3],no mutagenicity
same,"Tissue/plasma ratio, kidney",[4],3.00
same,"Tissue/plasma ratio, liver",[4],20 and 20.6
same,"Tissue/plasma ratio, lung",[4],0.515
same,Proportion of dose recovered in urine,[4]; over 24 h,30%
same,clearance,"[4]; male, Swiss, mouse, in vivo, iv",0.735 L/h/kg
same,Vd,"[4]; male, Swiss, mouse, in vivo, iv, read-out: Volume of distribution",0.321 L/kg
same,half-life,"[4]; male, Swiss, mouse, plasma, iv",4.5 h
same,dose excreted,"[4]; male, Swiss, mouse, urine, iv, over 24 h, read-out: Proportion of dose recovered in urine",30%
